Laboratory results as given in US5306496A, “Antibiotics NK374186A, NK374186B, NK374186B3 and NK374186C3, process for producing the same, and use of the same” (Nippon Kayaku Kabushiki Kaisha, priority 1991, dated 1994).
≈ marks a conversion by molar mass, not a printed value.

Legend:
[1] = system: Bacilli, Staphylococcus and Micrococcus; experiment: Antibacterial activity, summary in words; type: cell-based; settings: on Bacilli, agar dilution method
Protocol: (§1) The antibacterial and antifungal activities of each antibiotic are expressed in minimum inhibitory concentration (MIC) determined by the agar dilution method. In the antibacterial activity test, each test microorganism is inoculated onto a Muller/Hinton medium and cultured therein at 37° C. overnight to observe the growth of the microorganism. In the antifungal activity test, each test microorganism is inoculated onto a Czapek medium and cultured therein at 27° C. for 2 to 3 days, followed by the observation of the growth of the microorganism.

[2] = system: mouse lymphoblast formation with LPS and Con A; experiment: Mouse lymphoblast formation with LPS and Con A, summary in words; type: cell-based, BALB/C mouse
Protocol: (§2) An RPMI 1640 medium containing 20% of fetal calf serum, 25 mM of Hepes buffer, 100 μg/ml of streptomycin and 100 U/ml of penicillin G is used. The incubation is carried out in a 96-well flat-bottomed microplate (COSTAR). As a mitogen, lipopolysaccharide (LPS) and concanavalin A (Con A) are used respectively at final concentrations of 100 μg/ml and 5 μg/ml.
(§3) The spleen of a BALB/C mouse (female,>20 weeks in age) is taken out and a single-cell suspension is prepared. After removing erythrocytes by hyper shock, the suspension is used as such for the treatment with LPS. For the treatment with Con A, on the other hand, the suspension is passed through a Nylon Fiber (a product of Wako Pure Chemicals, Inc.) for separating T cells. 2×10^5 /well of the spleen cells and each test compound of the concentration as specified above are added to thereby give a total volume of 0.2 ml/well, followed by incubation for 72 hours. 8 hours before the completion of the incubation, 37 KBq/well of [^3 H]-thymidine is added and the thymidine uptake in the cells is measured. The effect is evaluated based on the ratio of the [^3 H]-thymidine uptake of a test group to that of a control group ["Meneki Jikken Sosa-ho (Procedures of Immunological Tests)", ed. by Japan Assoc. of Immunol., pages 2267-2276].

[3] = system: mouse lymphoblast formation with Con A (T cells); experiment: Mouse lymphoblast formation with Con A ([^3 H]-thymidine uptake); type: cell-based, BALB/C mouse; settings: Con A 5 μg/ml, 72 hours, control = 100
Protocol: as §2, §3

[4] = system: CDF-1 mice; experiment: Toxicity, repeated intraperitoneal administration; type: in vivo; settings: 100 mg/kg intraperitoneal once a day for 10 days
Protocol: 100 mg/kg of NK374186A and NK374186B are intraperitoneally administered to CDF-1 mice (male, aged 8 weeks) repetitively once a day for 10 days. Each test compound is administered in the form of a solution in 3.5% DMSO+6.5% Tween+90% physiological saline.

[5] = system: mammalian cells; experiment: Suppressing the growth of mammalian cells, in words; type: cell-based
[6] = system: mouse lymphoblast formation with LPS (spleen cells); experiment: Mouse lymphoblast formation with LPS ([^3 H]-thymidine uptake); type: cell-based, BALB/C mouse; settings: 72 hours, control = 100
Protocol: as §2, §3

[7] = Solubility; type: physicochemical
[8] = system: Penicillium chrysogenum IFO 8645; experiment: Antifungal activity, MIC by agar dilution method; type: cell-based; settings: Czapek medium, 27° C., 2 to 3 days
Protocol: as §1

[9] = system: Trycophyton mentagrophytes IFO 5466; experiment: Antifungal activity, MIC by agar dilution method; type: cell-based; settings: Czapek medium, 27° C., 2 to 3 days
Protocol: as §1

[10] = system: Botrytis fabae IFO 6183; experiment: Antifungal activity, MIC by agar dilution method; type: cell-based; settings: Czapek medium, 27° C., 2 to 3 days
Protocol: as §1

[11] = system: Rhizopus hanguchao IFO 4749; experiment: Antifungal activity, MIC by agar dilution method; type: cell-based; settings: Czapek medium, 27° C., 2 to 3 days
Protocol: as §1

[12] = system: Candida albicans IFO 1385; experiment: Antifungal activity, MIC by agar dilution method; type: cell-based; settings: Czapek medium, 27° C., 2 to 3 days
Protocol: as §1

[13] = system: Aspergillus niger IFO 4407; experiment: Antifungal activity, MIC by agar dilution method; type: cell-based; settings: Czapek medium, 27° C., 2 to 3 days
Protocol: as §1

[14] = system: Mucor javanicus IFO 4569; experiment: Antifungal activity, MIC by agar dilution method; type: cell-based; settings: Czapek medium, 27° C., 2 to 3 days
Protocol: as §1

[15] = system: A2780; experiment: Cell growth suppressing activity (MTT method); type: cell-based; settings: A2780, human ovarian cancer, 2 days
Protocol: (§4) Cells are incubated in an RPMI 1640 medium containing 10% of fetal calf serum at 37° C. under 5% of CO2. Then these cells are sowed in a 96-well plate and pre-incubated for 1 day, followed by the addition of each test compound. The treatment with the test compound was carried out for 2 days and the activity of suppressing the cell growth was evaluated by the MTT method.

[16] = system: Li-7; experiment: Cell growth suppressing activity (MTT method); type: cell-based; settings: Li-7, human hepatic cancer, 2 days
Protocol: as §4

[17] = system: 2780^AD; experiment: Cell growth suppressing activity (MTT method), adriamycin-resistant strain; type: cell-based, human; settings: adriamycin-resistant strain obtained from A2780, 2 days
Protocol: as §4

[18] = system: Li-7, A2780 and 2780^AD; experiment: Cell growth suppressing activity (MTT method), all cell lines, in words; type: cell-based, human; settings: each cell line
Protocol: as §4

[19] = system: Bacillus subtilis ATCC 6633; experiment: Antibacterial activity, MIC by agar dilution method; type: cell-based; settings: Muller/Hinton medium, 37° C., overnight
Protocol: as §1

[20] = system: Staphylococcus aureus FDA 209P; experiment: as above; type: cell-based; settings: Muller/Hinton medium, 37° C., overnight
Protocol: as §1

[21] = as above; type: cell-based; settings: Mycobacterium luteus ATCC 9341; Muller/Hinton medium, 37° C., overnight
Protocol: as §1

[22] = system: Micrococcus flavus ATCC 10240; experiment: as above; type: cell-based; settings: Muller/Hinton medium, 37° C., overnight
Protocol: as §1

[23] = system: Escherichia coli K-12; experiment: as above; type: cell-based; settings: Muller/Hinton medium, 37° C., overnight
Protocol: as §1

[24] = system: Bacillus megaterium ATCC 14945; experiment: as above; type: cell-based; settings: Muller/Hinton medium, 37° C., overnight
Protocol: as §1

[25] = system: Bacillus subtilis IAM 1072; experiment: as above; type: cell-based; settings: Muller/Hinton medium, 37° C., overnight
Protocol: as §1

[26] = system: Escherichia coli NIHJ; experiment: as above; type: cell-based; settings: Muller/Hinton medium, 37° C., overnight
Protocol: as §1

[27] = system: transplanted section/host reaction (GVH); experiment: Transplanted section/host reaction (GVH), spleen weighing method; type: in vivo, BDF mouse; settings: for Spleen/total body weight ± S.D. / Index (spleen/total body weight): subcutaneous, 3 days; for Spleen/total body weight ± S.D.: seventh day after transplantation; for Index (spleen/total body weight): untreated = 1.00
Protocol: This test is carried out in accordance with the spleen weighing method of Ford et al. [Ford, W. L., et al., Handbook of Experimental Immunology 30 (ed. by Weir, D. M.), Blackwell Scientific Publications, (1978), page 1]. 5×10^6 spleen cells obtained from a donor C57BL/6 mouse (male, aged 8 weeks) are transplanted into the peritoneal cavity of a BDF mouse (male, aged 7 weeks) which is the Fl hybrid receptor. At the same time, NK374186 and a control drug are dissolved in a solvent (0.25 % gum arabic) and subcutaneously injected into the dorsum of the receptor mouse. As a control, the solvent alone is also subcutaneously injected into the dorsum of the mouse. The same administration is effected on the next day and on the following day. On the seventh day after the transplantation, the spleen of the animal is weighed.

## C=CC(C)(C)[C@H](NC(=O)[C@H](C)[C@H](O)[C@H](C)[C@H](O)CCCCCCCCCCCCC)C(=O)N[C@H](C(=O)N[C@@H](C=O)C(=O)O)[C@@H](C)O [NK374186B]
[1]
  antibacterial activity: potent antibacterial activity on Bacilli, Staphylococcus and Micrococcus
[2]; at a concentration of 10 μg/ml or above
  lymphoblast formation: potently suppress the same at a concentration of 10 μg/ml or above
[2]; at a lower concentration
  lymphoblast formation: promote the lymphoblast formation with LPS and Con A at a lower concentration
[3]; 0.1 μg/ml
  Function index, Con A: 133.7%
[3]; 1 μg/ml
  Function index, Con A: 168.8%
[3]; 10 μg/ml
  Function index, Con A: 111.6%
[3]; 100 μg/ml
  Function index, Con A: 31.5%
[4]
  death of mice: none of these compounds causes the death of mice
  toxicity: low toxicity
[4]; versus solvent control group
  clinical conditions: no difference from those of the solvent control group
[5]
  activity of suppressing the growth of mammalian cells: weak activity of suppressing the growth of mammalian cells
[6]; 0.1 μg/ml, LPS 100 μg/ml
  Function index, LPS: 156.3%
[6]; 1 μg/ml, LPS 100 μg/ml
  Function index, LPS: 156.3%
[6]; 10 μg/ml, LPS 100 μg/ml
  Function index, LPS: 94.7%
[6]; 100 μg/ml
  Function index, LPS: 0.8%
[7]
  solubility: soluble in lower alcohols, chloroform and ethyl acetate
[8]
  MIC: > 100 µg/mL
[9]
  MIC: > 100 µg/mL
[10]
  MIC: > 100 µg/mL
[11]
  MIC: > 100 µg/mL
[12]
  MIC: > 100 µg/mL
[13]
  MIC: > 100 µg/mL
[14]
  MIC: > 100 µg/mL
[15]
  IC50: 6.6 µg/mL (≈ 10.1 µM)
[16]
  IC50: 7.0 µg/mL (≈ 10.7 µM)
[17]
  IC50: 33 µg/mL (≈ 50.3 µM)
[18]
  cell growth suppression: suppress the growth of each cell line
[19]
  MIC: > 100 µg/mL
[20]
  MIC: 3.13 µg/mL (≈ 4.77 µM)
[21]
  MIC: > 100 µg/mL
[22]
  MIC: 3.13 µg/mL (≈ 4.77 µM)
[23]
  MIC: > 100 µg/mL
[24]
  MIC: 6.25 µg/mL (≈ 9.53 µM)
[25]
  MIC: 6.25 µg/mL (≈ 9.53 µM)
[26]
  MIC: > 100 µg/mL
[27]; 0.5 mg/kg
  Spleen/total body weight ± S.D.: 8.24 ± 1.54 ×10^-3
  Index (spleen/total body weight): 1.74
[27]; 5 mg/kg
  Spleen/total body weight ± S.D.: 11.32 ± 3.61 ×10^-3
[27]; 5 mg/kg, * printed
  Index (spleen/total body weight): 2.40
[27]; 50 mg/kg
  Spleen/total body weight ± S.D.: 12.63 ± 3.37 ×10^-3
[27]; 50 mg/kg, * (A), ** (B) printed
  Index (spleen/total body weight): 2.67
[27]; in words
  GVH reaction: significantly enhanced
  spleen/total body weight ratio: increased depending on the dose
